Assay [1] addresses T1, Receptor-interacting serine/threonine-protein kinase 2 (Homo sapiens, UniProt O43353). The assay can be described thus: Inhibition of full length FLAG His-tagged RIPK2 (unknown origin) expressed in Baculovirus by fluorescence polarization assay. On the technique in general: Polarisation of emitted light reports the rotation of a fluorescent probe.
For assay [2], the target named is T1, Receptor-interacting serine/threonine-protein kinase 2. The assay can be described thus: Inhibition of RIPK2 (unknown origin).
Assay [3] has the same target. The assay can be described thus: Inhibition of RIPK2 (unknown origin) by ADP-Glo assay. In general terms: ADP-Glo first removes unused ATP, then detects ADP through luciferase.
Assay [4] shares this target. The assay can be described thus: Inhibition of RIPK2 (unknown origin) expressed in Escherichia coli.
Assay [5] shares this target. The assay can be described thus: Inhibition of RIPK2 (unknown origin) using (CRRKSLVGTPYWMAPE) peptide as substrate pre-incubated for 60 mins followed by substrate addition and measured after 2 hrs by fluorescence polarization assay.
The target in assay [6] is von Hippel-Lindau disease tumor suppressor/Receptor-interacting serine/threonine-protein kinase 2 (Homo sapiens, UniProt O43353+P40337). The assay can be described thus: Protac activity at VHL/RIPK2 in human THP-1 cells assessed as RIPK2 degradation measured after 16 hrs by Western blot analysis. The assay is classed as cell-based. On the technique in general: Immunoblotting shows a protein as a band on a membrane.

Five molecules from ChEMBL document CHEMBL5625207, “RIPK2 inhibitors for disease therapy: Current status and perspectives” (Eur J Med Chem, 2023) can be followed below.

T1 sequence (O43353 whole entry): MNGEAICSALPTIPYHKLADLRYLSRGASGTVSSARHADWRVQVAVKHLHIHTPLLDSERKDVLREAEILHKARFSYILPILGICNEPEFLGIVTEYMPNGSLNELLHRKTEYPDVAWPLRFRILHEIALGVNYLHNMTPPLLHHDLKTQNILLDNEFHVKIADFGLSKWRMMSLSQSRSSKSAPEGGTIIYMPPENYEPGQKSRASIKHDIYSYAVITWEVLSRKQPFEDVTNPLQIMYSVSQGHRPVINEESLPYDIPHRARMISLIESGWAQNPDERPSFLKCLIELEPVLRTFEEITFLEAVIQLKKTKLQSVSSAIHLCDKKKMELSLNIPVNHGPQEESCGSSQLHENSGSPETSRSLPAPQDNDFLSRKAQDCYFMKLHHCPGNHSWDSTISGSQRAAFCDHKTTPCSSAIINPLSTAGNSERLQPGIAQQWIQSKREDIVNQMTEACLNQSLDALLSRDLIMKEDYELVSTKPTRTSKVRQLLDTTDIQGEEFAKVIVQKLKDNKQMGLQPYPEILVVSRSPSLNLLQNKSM
Sequence of von Hippel-Lindau disease tumor suppressor/Receptor-interacting serine/threonine-protein kinase 2 (O43353 whole entry): as above
Sequence of von Hippel-Lindau disease tumor suppressor/Receptor-interacting serine/threonine-protein kinase 2 (P40337 whole entry): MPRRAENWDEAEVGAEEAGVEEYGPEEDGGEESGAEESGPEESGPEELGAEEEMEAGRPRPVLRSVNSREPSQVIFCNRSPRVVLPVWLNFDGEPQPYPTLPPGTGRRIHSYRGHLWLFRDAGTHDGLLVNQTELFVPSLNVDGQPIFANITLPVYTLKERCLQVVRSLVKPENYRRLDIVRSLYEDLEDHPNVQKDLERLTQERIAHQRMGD

The IC50 is the midpoint of a concentration-inhibition curve. Take `Cc1ccc(-c2cn([C@H]3CC[C@@H](N)CC3)c3ncnc(N)c23)c(F)c1`: the IC50 in assay [1] and in assay [2] was 0.6 nM each time.

Take `c1cc(-c2ccc3ncnc(Nc4ccc5scnc5c4)c3c2)ccn1`: the IC50 in assay [1] and in assay [3] was 5.1 nM each time.

`c1cc2cc(n1)NCCOCCNc1ccc3ncc-2n3n1`: the half-inhibitory concentration (IC50) in assay [1] and in assay [4] was 14.1 nM each time.

Regarding `Cc1ccc(-c2nn(C(C)(C)CN(C)C)c3ncnc(N)c23)cc1`, the IC50 was 10 nM in assay [1] and 1010 nM in assay [5].

For `Cc1ncsc1-c1ccc(CNC(=O)C2C[C@H](O)CN2C(=O)[C@@H](NC(=O)COCCOCCOCCOCCOc2cc3nccc(Nc4ccc5scnc5c4)c3cc2S(=O)(=O)C(C)(C)C)C(C)(C)C)cc1` (some centres undefined), the IC50 in assay [6] was 2 nM.
